# Values quoted from earlier work as cited in patent publication US20180191016A1, “FLOW BATTERIES INC[…] PHE[…] WITHIN AN AQUEOUS ELECTROLYTE SOLUTION” (LOCKHEED MARTIN ADVANCED ENERGY STORAGE, LLC, priority 2017, published 2018).
# Details: compared to a reversible hydrogen electrode
structure (smiles),measurement,value
c1ccc2c(c1)Nc1ccccc1S2 [phenothiazine],standard reduction potential,approximately +0.9 V
